≈ marks a conversion by molar mass, not a printed value. Calls of active or inactive are those of the source. No cut-off for these calls is given here.
Experiments:
Cryptococcus neoformans [1] = assay: Antifungal activity against Cryptococcus neoformans ATCC 90113 after 24 to 72 hrs by M27-A2 CLSI method; assay type: functional
Candida albicans [2] = assay: Antifungal activity against Candida albicans ATCC 90028 after 24 to 72 hrs by M27-A2 CLSI method; assay type: functional
Nakaseomyces glabratus [3] = assay: Antifungal activity against Candida glabrata ATCC 90030 after 24 to 72 hrs by M27-A2 CLSI method; assay type: functional
Pichia kudriavzevii [4] = assay: Antifungal activity against Candida Krusei ATCC 6258 after 24 to 72 hrs by M27-A2 CLSI method; assay type: functional
Aspergillus fumigatus [5] = assay: Antifungal activity against Aspergillus fumigatus ATCC 204305 after 24 to 72 hrs by M27-A2 CLSI method; assay type: functional, organism-based
Cryptococcus neoformans [6] = assay: Antifungal activity against Cryptococcus neoformans ATCC 90113 at 20 ug/ml after 24 to 72 hrs by M27-A2 CLSI method; assay type: functional, organism-based
Candida albicans [7] = assay: Antifungal activity against Candida albicans ATCC 90028 at 20 ug/ml after 24 to 72 hrs by M27-A2 CLSI method; assay type: functional, organism-based
Nakaseomyces glabratus [8] = assay: Antifungal activity against Candida glabrata ATCC 90030 at 20 ug/ml after 24 to 72 hrs by M27-A2 CLSI method; assay type: functional, organism-based
Aspergillus fumigatus [9] = assay: Antifungal activity against Aspergillus fumigatus ATCC 204305 at 20 ug/ml after 24 to 72 hrs by M27-A2 CLSI method; assay type: functional, organism-based
Pichia kudriavzevii [10] = assay: Antifungal activity against Candida Krusei ATCC 6258 at 20 ug/ml after 24 to 72 hrs by M27-A2 CLSI method; assay type: functional, organism-based
SK-MEL = assay: Cytotoxicity against human SK-MEL cells at 10 ug/ml by neutral red assay; assay type: cell-based
KB = assay: Cytotoxicity against human KB cells at 10 ug/ml by neutral red assay; assay type: cell-based
BT-549 = assay: Cytotoxicity against human BT549 cells at 10 ug/ml by neutral red assay; assay type: cell-based
SK-OV-3 = assay: Cytotoxicity against human SKOV3 cells at 10 ug/ml by neutral red assay; assay type: cell-based
Vero = assay: Cytotoxicity against african green monkey Vero cells at 10 ug/ml by neutral red assay; assay type: cell-based; conditions: chlorocebus sabaeus
LLC-PK1 = assay: Cytotoxicity against pig LLC-PK1 cells at 10 ug/ml by neutral red assay; assay type: cell-based, Sus scrofa

| SMILES | MFC (Cryptococcus neoformans [1]) [µg/mL] | MIC (Cryptococcus neoformans [1]) [µg/mL] | MFC (Nakaseomyces glabratus [3]) [µg/mL] | MIC (Nakaseomyces glabratus [3]) [µg/mL] | MFC (Pichia kudriavzevii [4]) [µg/mL] | MIC (Pichia kudriavzevii [4]) [µg/mL] | MIC (Candida albicans [7]) | Activity (SK-MEL) | Activity (KB) | Activity (BT-549) | Activity (SK-OV-3) | Activity (Vero) | Activity (LLC-PK1) | further results |
| --- | --- | --- | --- | --- | --- | --- | --- | --- | --- | --- | --- | --- | --- | --- |
| C[C@@H]1[C@H](O)[C@@H](C)/C=C/C=C/C=C/C=C/C=C/C=C/C=C/[C@H](O[C@@H]2O[C@H](C)[C@@H](O)[C@H](N)[C@@H]2O)C[C@@H]2O[C@](O)(C[C@@H](O)C[C@@H](O)[C@H](O)CC[C@@H](O)C[C@@H](O)CC(=O)O[C@H]1C)C[C@H](O)[C@H]2C(=O)O [AMPHOTERICIN B] | 0.47 (≈ 0.509 µM) | 0.47 (≈ 0.509 µM) | 0.94 (≈ 1.02 µM) | 0.63 (≈ 0.682 µM) | 1.25 (≈ 1.35 µM) | 1.25 (≈ 1.35 µM) | – | – | – | – | – | – | – | MIC (Candida albicans [2]): 0.47 µg/mL (≈ 0.509 µM) |
| CCCCCCCCCCCCC1=NCCCC1 | – | – | – | – | – | – | – | – | – | – | – | – | – | Activity (Aspergillus fumigatus [5]): inactive; Activity (Cryptococcus neoformans [6]): inactive; Activity (Candida albicans [7]): inactive; Activity (Nakaseomyces glabratus [8]): inactive; Activity (Aspergillus fumigatus [9]): inactive |
| CCCCCCCCCCCCCC1=NCCCC1 | – | – | – | – | – | – | – | – | – | – | – | – | – | Activity (Aspergillus fumigatus [5]): inactive; Activity (Cryptococcus neoformans [6]): inactive; Activity (Candida albicans [7]): inactive; Activity (Nakaseomyces glabratus [8]): inactive; Activity (Aspergillus fumigatus [9]): inactive |
| CCCCCCCCCCCCCCCCCCC1=NCCCC1 | 15 (≈ 44.7 µM) | 10 (≈ 29.8 µM) | 15 (≈ 44.7 µM) | 10 (≈ 29.8 µM) | – | – | inactive | Non-toxic | Non-toxic | Non-toxic | Non-toxic | Non-toxic | Non-toxic | MIC (Pichia kudriavzevii [10]): inactive |
| CCCCCCCCCCCCCCCCCC1=NCCCC1 | 3.8 (≈ 11.8 µM) | 2.5 (≈ 7.77 µM) | 7.5 (≈ 23.3 µM) | 5 (≈ 15.5 µM) | 15 (≈ 46.6 µM) | 15 (≈ 46.6 µM) | inactive | Non-toxic | Non-toxic | Non-toxic | Non-toxic | Non-toxic | Non-toxic | – |
| CCCCCCCCCCCCCCC1=NCCCC1 | 10 (≈ 35.8 µM) | 10 (≈ 35.8 µM) | – | – | – | – | inactive | Non-toxic | Non-toxic | Non-toxic | Non-toxic | Non-toxic | Non-toxic | MIC (Nakaseomyces glabratus [8]): inactive; MIC (Pichia kudriavzevii [10]): inactive |
| CCCCCCCCCCCCCCCC1=NCCCC1 | 12.5 (≈ 42.6 µM) | 11.2 (≈ 38.2 µM) | 15 (≈ 51.1 µM) | 10 (≈ 34.1 µM) | 15 (≈ 51.1 µM) | 10 (≈ 34.1 µM) | inactive | Non-toxic | Non-toxic | Non-toxic | Non-toxic | Non-toxic | Non-toxic | – |
| CCCCCCCCCCCCCCCCC1=NCCCC1 | 3.8 (≈ 12.4 µM) | 3.8 (≈ 12.4 µM) | 7.5 (≈ 24.4 µM) | 7.5 (≈ 24.4 µM) | 7.5 (≈ 24.4 µM) | 7.5 (≈ 24.4 µM) | – | Non-toxic | Non-toxic | Non-toxic | Non-toxic | Non-toxic | Non-toxic | MFC (Candida albicans [2]): 15 µg/mL (≈ 48.8 µM); MIC (Candida albicans [2]): 15 µg/mL (≈ 48.8 µM) |
